Measured values: patent US11896573B2, “Pharmaceutical compositions and pharmacokinetics of a gamma-hydroxybutyric acid derivative” (priority 2020, dated 2024)
Read-outs that look alike come from different tables or passages of the source.

Assay: Single ascending dose study, plasma pharmacokinetics of Compound (1) and GHB
Assay type: in vivo, human
Settings: fasted; for Tmax / AUC(0-inf) / AUC(0-t) / Cmax / half-life: human, plasma; for Tmax: read-out: Compound (1) plasma Tmax, Median; for AUC(0-inf) / AUC(0-t) / Cmax / half-life: po
Protocol: The plasma concentrations of Compound (1) and GHB in plasma in healthy human subjects were measured using liquid chromatography tandem mass-spectroscopy and evaluated using PHOENIX™ WINNONLIN® version 8.1 (Pharsight Corporation, USA) and MICROSOFT® EXCEL® (Microsoft Corporation, USA).
All randomized subjects who received Compound (1), with available pharmacokinetic (PK) data and without relevant deviations interfering with the PK evaluations, were included. Subjects who received only placebo were excluded from the PK population. In addition, the PK population was used for the summaries and analyses of all PK data.
A randomized, double-blind, single-center, single ascending dose study was undertaken to evaluate the safety, tolerability, and pharmacokinetics of Compound (1) and GHB in healthy subjects.
Compound (1) was administered to randomized healthy subjects at doses from 0.1 g to 7.25 g as an aqueous solution of Compound (1) in water. The subjects fasted for at least 10 hours overnight with clear liquids allowed prior to dosing and the subjects were fasted for 4 hours after dosing.
Plasma samples were obtained at various times following oral administration and the plasma concentrations of Compound (1) and GHB were measured.

[1] = Cohort 7 (7.25 g) single oral dose

SMILES: CC(C)[C@H](N)C(=O)OCCCC(=O)O [Compound (1), 4-((L-valyl)oxy)butanoic acid]
- Compound (1) CL/F, Max [1]: 433 L/h
- Compound (1) CL/F, Mean [1]: 376 L/h
- Compound (1) CL/F, Median [1]: 375 L/h
- Compound (1) CL/F, Min [1]: 298 L/h
- Compound (1) plasma AUC0-inf, Max [1]: 24300 ng·h/mL
- Compound (1) plasma AUC0-inf, Min [1]: 16700 ng·h/mL
- Compound (1) plasma AUC0-tlast, Max [1]: 24300 ng·h/mL
- Compound (1) plasma AUC0-tlast, Min [1]: 16700 ng·h/mL
- Compound (1) plasma Cmax, Max [1]: 26000 ng/mL
- Compound (1) plasma t1/2, Max [1]: 1.28 h
- Compound (1) plasma t1/2, Min [1]: 0.92 h
- Tmax (0.1 g, Cohort 1 (0.10 g) single oral dose): 0.25 h
- Tmax (0.5 g, Cohort 2 (0.50 g) single oral dose): 0.75 h
- Tmax (1.5 g, Cohort 3 (1.50 g) single oral dose): 1 h
- Tmax (4.5 g, Cohort 5 (4.50 g) single oral dose): 0.75 h
- AUC(0-inf) (0.1 g, Cohort 1 (0.10 g) single oral dose, read-out: Compound (1) plasma AUC0-inf, Mean): 250 ng·h/mL
- AUC(0-inf) (0.1 g, Cohort 1 (0.10 g) single oral dose, read-out: Compound (1) plasma AUC0-inf, Median): 252 ng·h/mL
- AUC(0-t) (0.1 g, Cohort 1 (0.10 g) single oral dose, read-out: Compound (1) plasma AUC0-tlast, Mean): 249 ng·h/mL
- AUC(0-t) (0.1 g, Cohort 1 (0.10 g) single oral dose, read-out: Compound (1) plasma AUC0-tlast, Median): 250 ng·h/mL
- Cmax (0.1 g, Cohort 1 (0.10 g) single oral dose, read-out: Compound (1) plasma Cmax, Mean): 420 ng/mL
- Cmax (0.1 g, Cohort 1 (0.10 g) single oral dose, read-out: Compound (1) plasma Cmax, Median): 373 ng/mL
- half-life (0.1 g, Cohort 1 (0.10 g) single oral dose, read-out: Compound (1) plasma t1/2, Mean (converted)): 0.7 h
- half-life (0.1 g, Cohort 1 (0.10 g) single oral dose, read-out: Compound (1) plasma t1/2, Median (converted)): 0.71 h
- AUC(0-inf) (0.5 g, Cohort 2 (0.50 g) single oral dose, read-out: Compound (1) plasma AUC0-inf, Mean): 1290 ng·h/mL
- AUC(0-inf) (0.5 g, Cohort 2 (0.50 g) single oral dose, read-out: Compound (1) plasma AUC0-inf, Median): 1280 ng·h/mL
- AUC(0-t) (0.5 g, Cohort 2 (0.50 g) single oral dose, read-out: Compound (1) plasma AUC0-tlast, Mean): 1290 ng·h/mL
- AUC(0-t) (0.5 g, Cohort 2 (0.50 g) single oral dose, read-out: Compound (1) plasma AUC0-tlast, Median): 1280 ng·h/mL
- Cmax (0.5 g, Cohort 2 (0.50 g) single oral dose, read-out: Compound (1) plasma Cmax, Mean): 1540 ng/mL
- Cmax (0.5 g, Cohort 2 (0.50 g) single oral dose, read-out: Compound (1) plasma Cmax, Median): 1270 ng/mL
- half-life (0.5 g, Cohort 2 (0.50 g) single oral dose, read-out: Compound (1) plasma t1/2, Mean (converted)): 1.11 h
- half-life (0.5 g, Cohort 2 (0.50 g) single oral dose, read-out: Compound (1) plasma t1/2, Median (converted)): 1.19 h
- AUC(0-inf) (1.5 g, Cohort 3 (1.50 g) single oral dose, read-out: Compound (1) plasma AUC0-inf, Mean): 2480 ng·h/mL
- AUC(0-inf) (1.5 g, Cohort 3 (1.50 g) single oral dose, read-out: Compound (1) plasma AUC0-inf, Median): 2710 ng·h/mL
- AUC(0-t) (1.5 g, Cohort 3 (1.50 g) single oral dose, read-out: Compound (1) plasma AUC0-tlast, Mean): 2860 ng·h/mL
- AUC(0-t) (1.5 g, Cohort 3 (1.50 g) single oral dose, read-out: Compound (1) plasma AUC0-tlast, Median): 2960 ng·h/mL
- Cmax (1.5 g, Cohort 3 (1.50 g) single oral dose, read-out: Compound (1) plasma Cmax, Mean): 3360 ng/mL
- Cmax (1.5 g, Cohort 3 (1.50 g) single oral dose, read-out: Compound (1) plasma Cmax, Median): 2920 ng/mL
- half-life (1.5 g, Cohort 3 (1.50 g) single oral dose, read-out: Compound (1) plasma t1/2, Mean (converted)): 1.04 h
- half-life (1.5 g, Cohort 3 (1.50 g) single oral dose, read-out: Compound (1) plasma t1/2, Median (converted)): 1.06 h
- AUC(0-inf) (3 g, Cohort 4 (3.00 g) single oral dose, read-out: Compound (1) plasma AUC0-inf, Mean): 7520 ng·h/mL
- AUC(0-inf) (3 g, Cohort 4 (3.00 g) single oral dose, read-out: Compound (1) plasma AUC0-inf, Median): 7410 ng·h/mL
- AUC(0-t) (3 g, Cohort 4 (3.00 g) single oral dose, read-out: Compound (1) plasma AUC0-tlast, Mean): 7510 ng·h/mL
- AUC(0-t) (3 g, Cohort 4 (3.00 g) single oral dose, read-out: Compound (1) plasma AUC0-tlast, Median): 7410 ng·h/mL
- Cmax (3 g, Cohort 4 (3.00 g) single oral dose, read-out: Compound (1) plasma Cmax, Mean): 11300 ng/mL
- Cmax (3 g, Cohort 4 (3.00 g) single oral dose, read-out: Compound (1) plasma Cmax, Median): 11200 ng/mL
- half-life (3 g, Cohort 4 (3.00 g) single oral dose, read-out: Compound (1) plasma t1/2, Mean (converted)): 1.15 h
- half-life (3 g, Cohort 4 (3.00 g) single oral dose, read-out: Compound (1) plasma t1/2, Median (converted)): 1.12 h
- AUC(0-inf) (4.5 g, Cohort 5 (4.50 g) single oral dose, read-out: Compound (1) plasma AUC0-inf, Mean): 11400 ng·h/mL
- AUC(0-inf) (4.5 g, Cohort 5 (4.50 g) single oral dose, read-out: Compound (1) plasma AUC0-inf, Median): 11600 ng·h/mL
- AUC(0-t) (4.5 g, Cohort 5 (4.50 g) single oral dose, read-out: Compound (1) plasma AUC0-tlast, Mean): 11100 ng·h/mL
- AUC(0-t) (4.5 g, Cohort 5 (4.50 g) single oral dose, read-out: Compound (1) plasma AUC0-tlast, Median): 11600 ng·h/mL
- Cmax (4.5 g, Cohort 5 (4.50 g) single oral dose, read-out: Compound (1) plasma Cmax, Mean): 12800 ng/mL
- Cmax (4.5 g, Cohort 5 (4.50 g) single oral dose, read-out: Compound (1) plasma Cmax, Median): 14000 ng/mL
- half-life (4.5 g, Cohort 5 (4.50 g) single oral dose, read-out: Compound (1) plasma t1/2, Mean (converted)): 1.14 h
- half-life (4.5 g, Cohort 5 (4.50 g) single oral dose, read-out: Compound (1) plasma t1/2, Median (converted)): 1.13 h
- AUC(0-inf) (6 g, Cohort 6 (6.00 g) single oral dose, read-out: Compound (1) plasma AUC0-inf, Mean): 18400 ng·h/mL
- AUC(0-inf) (6 g, Cohort 6 (6.00 g) single oral dose, read-out: Compound (1) plasma AUC0-inf, Median): 18000 ng·h/mL
- AUC(0-t) (6 g, Cohort 6 (6.00 g) single oral dose, read-out: Compound (1) plasma AUC0-tlast, Mean): 18400 ng·h/mL
- AUC(0-t) (6 g, Cohort 6 (6.00 g) single oral dose, read-out: Compound (1) plasma AUC0-tlast, Median): 18000 ng·h/mL
- Cmax (6 g, Cohort 6 (6.00 g) single oral dose, read-out: Compound (1) plasma Cmax, Mean): 17600 ng/mL
- Cmax (6 g, Cohort 6 (6.00 g) single oral dose, read-out: Compound (1) plasma Cmax, Median): 16500 ng/mL
- half-life (6 g, Cohort 6 (6.00 g) single oral dose, read-out: Compound (1) plasma t1/2, Mean (converted)): 1.18 h
- half-life (6 g, Cohort 6 (6.00 g) single oral dose, read-out: Compound (1) plasma t1/2, Median (converted)): 1.18 h
- AUC(0-inf) (7.25 g, Cohort 7 (7.25 g) single oral dose, read-out: Compound (1) plasma AUC0-inf, Mean): 19600 ng·h/mL
- AUC(0-inf) (7.25 g, Cohort 7 (7.25 g) single oral dose, read-out: Compound (1) plasma AUC0-inf, Median): 19400 ng·h/mL
- AUC(0-t) (7.25 g, Cohort 7 (7.25 g) single oral dose, read-out: Compound (1) plasma AUC0-tlast, Mean): 19600 ng·h/mL
- AUC(0-t) (7.25 g, Cohort 7 (7.25 g) single oral dose, read-out: Compound (1) plasma AUC0-tlast, Median): 19400 ng·h/mL
- Cmax (7.25 g, Cohort 7 (7.25 g) single oral dose, read-out: Compound (1) plasma Cmax, Mean): 22100 ng/mL
- Cmax (7.25 g, Cohort 7 (7.25 g) single oral dose, read-out: Compound (1) plasma Cmax, Median): 22200 ng/mL
- half-life (7.25 g, Cohort 7 (7.25 g) single oral dose, read-out: Compound (1) plasma t1/2, Mean (converted)): 1.11 h
- half-life (7.25 g, Cohort 7 (7.25 g) single oral dose, read-out: Compound (1) plasma t1/2, Median (converted)): 1.12 h
- Tmax (Cohort 4 (3.00 g) single oral dose): 0.5 h
- Tmax (Cohort 6 (6.00 g) single oral dose): 0.5 h
- Tmax [1]: 0.62 h
